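Test compounds were applied to cells in 96-well plates for 48 hours at 5 doses. GI50 marks 50% less growth.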 The source made the active and inactive calls. Cut-off read from the data, not from the text of the source: active = GI50 up to about 1.1 µM and inactive = higher.
Columns and labels:
Test in all cases: inhibition of tumour cell growth, NCI panel, 48 h
[1] = tested on: COLO 205
[2] = tested on: BT-549
[3] = tested on: OVCAR-3
[4] = tested on: NCI-H23
[5] = tested on: MDA-MB-231
[6] = tested on: HT-29
[7] = tested on: NCI-H226
[8] = tested on: RPMI-8226
[9] = tested on: MOLT-4
[10] = tested on: SF-268
[11] = tested on: SF-295
[12] = tested on: SW-620
[13] = tested on: K562
[14] = tested on: EKVX
[15] = tested on: SK-MEL-5
[16] = tested on: NCI/ADR-RES
[17] = tested on: Malme-3M
[18] = tested on: SNB-19
[19] = tested on: IGROV-1
[20] = tested on: SR

SMILES | GI50 [1] | GI50 [2] | GI50 [3] | GI50 [4] | GI50 [5] | GI50 [6] | GI50 [7] | GI50 [8] | GI50 [9] | GI50 [10] | GI50 [11] | GI50 [12] | GI50 [13] | GI50 [14] | GI50 [15] | GI50 [16] | GI50 [17] | GI50 [18] | GI50 [19] | GI50 [20]
C=C1[C@H]2O[C@H]2[C@@H](OC(C)=O)[C@@]2(C)[C@@H](OC(C)=O)C[C@@H](OC(=O)CCC)[C@@](C)(O)[C@@H]2[C@@H](OC(C)=O)[C@]2(O)[C@@H](C)C(=O)O[C@H]2[C@H]1Cl | > 100 µM (inactive) | > 100 µM (inactive) | > 100 µM (inactive) | > 100 µM (inactive) | > 100 µM (inactive) | > 100 µM (inactive) | 0.159 µM (active) | > 100 µM (inactive) | > 100 µM (inactive) | > 100 µM (inactive) | > 100 µM (inactive) | > 100 µM (inactive) | > 100 µM (inactive) | > 100 µM (inactive) | > 100 µM (inactive) | > 100 µM (inactive) | > 100 µM (inactive) | > 100 µM (inactive) |  | 
CN(C)c1ccc(/C=N/CC2CCCN3CCCCC23)cc1 (stereo unspecified) | 42.7 µM (inactive) | > 100 µM (inactive) | > 100 µM (inactive) | > 100 µM (inactive) | > 100 µM (inactive) |  | > 100 µM (inactive) |  |  | > 100 µM (inactive) | > 100 µM (inactive) |  |  | > 100 µM (inactive) | 58.7 µM (inactive) | > 100 µM (inactive) | > 100 µM (inactive) | > 100 µM (inactive) | > 100 µM (inactive) | 
O=c1[nH]c2ccccc2c(=O)c2cc3ccccc3cc12 | 88.7 µM (inactive) | 15.7 µM (inactive) | 22.7 µM (inactive) | 19.1 µM (inactive) | 6.35 µM (inactive) | > 100 µM (inactive) | 16.7 µM (inactive) |  | 92.9 µM (inactive) | 3.42 µM (inactive) | 18.6 µM (inactive) | 65.5 µM (inactive) | > 100 µM (inactive) | > 100 µM (inactive) | 49.2 µM (inactive) | 26.6 µM (inactive) | 45.6 µM (inactive) | 12.1 µM (inactive) | 48.2 µM (inactive) | 
CC1(C)OC[C@@]2([C@@H]3CC[C@@H](C3)C2(C)C)N1O | > 100 µM (inactive) | > 100 µM (inactive) | > 100 µM (inactive) | > 100 µM (inactive) | > 100 µM (inactive) | > 100 µM (inactive) | > 100 µM (inactive) | 79.4 µM (inactive) | > 100 µM (inactive) | > 100 µM (inactive) | > 100 µM (inactive) | > 100 µM (inactive) | > 100 µM (inactive) | > 100 µM (inactive) | > 100 µM (inactive) | > 100 µM (inactive) | 28.8 µM (inactive) | > 100 µM (inactive) | > 100 µM (inactive) | 
O=C1N2CCC[C@H]2CS1(=O)=O | 12.2 µM (inactive) | 14.8 µM (inactive) | 15.8 µM (inactive) | 15.8 µM (inactive) | 15.4 µM (inactive) | 28.5 µM (inactive) | 25.4 µM (inactive) | 2.77 µM (inactive) | 3.34 µM (inactive) | 20.7 µM (inactive) | 40.2 µM (inactive) | 8 µM (inactive) | 5.62 µM (inactive) | 22 µM (inactive) | 17.5 µM (inactive) | 30 µM (inactive) | 13.2 µM (inactive) | 35.9 µM (inactive) | 15.5 µM (inactive) | 
CCOC(=O)c1nnsc1NN=C(C)C | > 100 µM (inactive) | > 100 µM (inactive) | > 100 µM (inactive) | > 100 µM (inactive) | > 100 µM (inactive) | > 100 µM (inactive) | > 100 µM (inactive) | > 100 µM (inactive) | > 100 µM (inactive) | > 100 µM (inactive) | > 100 µM (inactive) | > 100 µM (inactive) | > 100 µM (inactive) | > 100 µM (inactive) | > 100 µM (inactive) | > 100 µM (inactive) | > 100 µM (inactive) |  | > 100 µM (inactive) | 
COc1ccc(-c2nc(N3CCCC3)no2)cc1 | > 100 µM (inactive) | 43.3 µM (inactive) | 72.8 µM (inactive) | 54.6 µM (inactive) | 50.1 µM (inactive) | 54.7 µM (inactive) | 42.7 µM (inactive) | 32.7 µM (inactive) | > 100 µM (inactive) | 53 µM (inactive) | 21.2 µM (inactive) | > 100 µM (inactive) | 60.3 µM (inactive) | 25.9 µM (inactive) | 53.6 µM (inactive) | 44.5 µM (inactive) | 11.6 µM (inactive) | 44.1 µM (inactive) | 18.9 µM (inactive) | 
Cc1c(C(C)C)cc(OCCO)cc1C(C)C | 34.8 µM (inactive) | 37.2 µM (inactive) | 47.5 µM (inactive) | 42.3 µM (inactive) | 32.9 µM (inactive) | 26.6 µM (inactive) | 34.8 µM (inactive) | 25.2 µM (inactive) | 34.1 µM (inactive) | 35.5 µM (inactive) | 34.4 µM (inactive) | 71.9 µM (inactive) | 41.7 µM (inactive) | 31 µM (inactive) | 17.6 µM (inactive) | 40 µM (inactive) |  | 66.2 µM (inactive) | 58.3 µM (inactive) | 26.7 µM (inactive)
CSc1ccsc1-c1sc(-c2cc(SC)c(-c3sc(-c4cc(SC)c(-c5sccc5SC)s4)cc3SC)s2)cc1SC | 33.4 µM (inactive) | 64.3 µM (inactive) | 49.8 µM (inactive) | 64.9 µM (inactive) | > 100 µM (inactive) | 93.5 µM (inactive) |  | 3.44 µM (inactive) | 18 µM (inactive) | > 100 µM (inactive) | > 100 µM (inactive) | 21.5 µM (inactive) | 46.8 µM (inactive) | > 100 µM (inactive) | > 100 µM (inactive) | 45.7 µM (inactive) | 29.4 µM (inactive) | > 100 µM (inactive) | > 100 µM (inactive) | 
CCOC(=O)c1nc2ccccc2nc1Oc1ccc(F)cc1 | > 100 µM (inactive) | > 100 µM (inactive) | > 100 µM (inactive) |  | > 100 µM (inactive) | > 100 µM (inactive) | > 100 µM (inactive) | > 100 µM (inactive) |  | 55.8 µM (inactive) | 70.6 µM (inactive) | > 100 µM (inactive) | > 100 µM (inactive) | > 100 µM (inactive) | > 100 µM (inactive) | > 100 µM (inactive) |  | > 100 µM (inactive) | > 100 µM (inactive) | 
FC(F)(F)c1cnc(N/N=C(/c2ccccc2)c2ccccn2)c(Cl)c1 | 2.51 µM (inactive) | 11.1 µM (inactive) | 3.37 µM (inactive) | 7.26 µM (inactive) | 5.57 µM (inactive) | 0.31 µM (active) | 13.2 µM (inactive) | 2.97 µM (inactive) | 2.67 µM (inactive) | 4.85 µM (inactive) | 3.4 µM (inactive) | 3.02 µM (inactive) | 4.03 µM (inactive) | 3.43 µM (inactive) | 4.29 µM (inactive) | 2.78 µM (inactive) |  | 9.33 µM (inactive) | 2.83 µM (inactive) | 2.76 µM (inactive)
O=C(O)C(Cc1cc(I)c(O)c(I)c1)C1CCCCC1 (stereo unspecified) |  | 34.5 µM (inactive) | 15.6 µM (inactive) | 24 µM (inactive) | 21.8 µM (inactive) | 30.8 µM (inactive) | 61.5 µM (inactive) |  | 28.4 µM (inactive) | 36.2 µM (inactive) | 35.6 µM (inactive) | 58.9 µM (inactive) | 66.2 µM (inactive) | 31.9 µM (inactive) | 22.4 µM (inactive) | 37.4 µM (inactive) | 37.7 µM (inactive) | 35.6 µM (inactive) | 27.5 µM (inactive) | 33.1 µM (inactive)
Cc1cn(C2CC(N=[N+]=[N-])C(CO)O2)c(=O)n(CCCCO)c1=O (stereo unspecified) | > 100 µM (inactive) | > 100 µM (inactive) | > 100 µM (inactive) | > 100 µM (inactive) | > 100 µM (inactive) | > 100 µM (inactive) | > 100 µM (inactive) | > 100 µM (inactive) | > 100 µM (inactive) | > 100 µM (inactive) | > 100 µM (inactive) | > 100 µM (inactive) | > 100 µM (inactive) | > 100 µM (inactive) |  | > 100 µM (inactive) | > 100 µM (inactive) | > 100 µM (inactive) | > 100 µM (inactive) | 
COC(=O)C(Cc1c(-c2[nH]c3ccccc3c2CC(NC(C)=O)C(=O)OC)[nH]c2ccccc12)NC(C)=O (stereo unspecified) | > 100 µM (inactive) | > 100 µM (inactive) | > 100 µM (inactive) | > 100 µM (inactive) | > 100 µM (inactive) | > 100 µM (inactive) | > 100 µM (inactive) | > 100 µM (inactive) | > 100 µM (inactive) | > 100 µM (inactive) | > 100 µM (inactive) | > 100 µM (inactive) | > 100 µM (inactive) | > 100 µM (inactive) | > 100 µM (inactive) | > 100 µM (inactive) | > 100 µM (inactive) | > 100 µM (inactive) | > 100 µM (inactive) | 
CC1=NN(C(=O)CC(=O)Nc2ccccc2Cl)C(=O)C1/N=N/c1ccc(C(=O)O)cc1 (stereo unspecified) | > 100 µM (inactive) | > 100 µM (inactive) | > 100 µM (inactive) | > 100 µM (inactive) | > 100 µM (inactive) | 7.73 µM (inactive) |  | > 100 µM (inactive) | > 100 µM (inactive) | > 100 µM (inactive) | > 100 µM (inactive) | > 100 µM (inactive) | > 100 µM (inactive) | 4.46 µM (inactive) | > 100 µM (inactive) | > 100 µM (inactive) | > 100 µM (inactive) | > 100 µM (inactive) | > 100 µM (inactive) | 51.1 µM (inactive)

From ChEMBL document CHEMBL1201862, “PubChem BioAssay data set” (2004)
